Values of other authors, collected in patent publication US20220218582A1, “METHOD FOR DYEING KERATINOUS MATERIAL, COMPRISING THE USE OF AN ORGANOSILICON COMPOUND, A CHROMOPHORIC COMPOUND, A MODIFIED FATTY ACID ESTER AND A SEALING REAGENT I” (Henkel AG & Co. KGaA, priority 2019, published 2022).

Conditions: 25° C.

Compound | solubility in water | solubility in water (in words)
O=C([O-])c1c(Cl)c(Cl)c(Cl)c(Cl)c1-c1c2c(Br)cc(=O)c(Br)c-2oc2c(Br)c(O)cc(Br)c12.O=C([O-])c1c(Cl)c(Cl)c(Cl)c(Cl)c1-c1c2c(Br)cc(=O)c(Br)c-2oc2c(Br)c(O)cc(Br)c12.[Na+].[Na+] [Acid Red 92, disodium salt of 3,4,5,6-tetrachloro-2-(1,4,5,8-tetrabromo-6-hydroxy-3-oxoxanthen-9-yl)benzoic acid] | greater than 10 g/L | 
O=S(=O)([O-])c1ccc(N=Nc2c(O)ccc3ccccc23)cc1.[Na+] [Acid Orange 7, sodium salt of 4-[(2-hydroxy-1-naphthyl)azo]benzene sulphonate] | more than 7 g/L | 
Nc1cc(S(=O)(=O)[O-])cc2cc(S(=O)(=O)[O-])c(N=Nc3ccccc3)c(O)c12.[Na+].[Na+] [Acid Red 33, disodium salt of 5-amino-4-hydroxy-3-(phenylazo)-naphthalene-2,7-disulphonate] | 2.5 mg/mL | 
O=C([O-])C1=NN(c2ccc(S(=O)(=O)[O-])cc2)C(=O)C1N=Nc1ccc(S(=O)(=O)[O-])cc1.[Na+].[Na+].[Na+] (centres unmarked) [Acid Yellow 23, trisodium salt of 4,5-dihydro-5-oxo-1-(4-sulfophenyl)-4-((4-sulfophenyl)azo)-1H-pyrazole-3-carboxylic acid] |  | highly soluble
mixture of the sodium salts of mono- and disulfonic acids of 2-(2-quinolyl)-1H-indene-1,3(2H)-dione [Acid Yellow 3] | 20 mg/mL | 
